# Reference: US4593092A, “Class of spiro-linked pyrrolidine-2,5-diones” (Kyorin Pharmaceutical Co., Ltd., priority 1983, dated 1986)
# Read-outs that look alike come from different tables or passages of the source.
# Assays:
# aldose reductase [1] = molecular target: T1, aldose reductase (Rattus norvegicus, UniProt P07943); experiment: Inhibitory activity on aldose reductase in vitro; format: biochemical; details: partially purified enzyme from rat lens
# T1 construct: partially purified enzyme from rat lens; from tissue; host or cells: rat lens
# Description: (§1) Aldose reductase preparation used in this test was partially purified enzyme from rat lens.
# aldose reductase [2] = molecular target: T1, aldose reductase; experiment: Inhibitory activity on aldose reductase in vivo (serum of orally dosed rats added to the aldose reductase assay); details: oral, 0.5 ml added to assay
# Experimental: as §1
# In order to estimate whether the compounds are available for inhibiting the enzyme in vivo, following preliminary test was carried out.
# 2 and 5 hours later, blood samples were taken from the rats. A 0.5 ml of serum, instead of the compound, was added to the assay system described in Experiment 1.
# [3] = system: pentylenetetrazole convulsion; experiment: Anti-convulsion test (pentylenetetrazole convulsion); format: in vivo; details: ICR mice; Example 2 orally at 50, 200, 500 and 800 mg/kg; pentylenetetrazole 100 mg/kg i.p. 2 hours later
# Experimental: Mice (ICR stain) were administered orally with the compound of Example 2 at various doses of 50, 200, 500 and 800 mg/kg and injected with pentylenetetrazole at a dose of 100 mg/kg intraperitoneally 2 hours later.
# [4] = Acute toxicity on mice, oral; details: mouse, in vivo
# Experimental: Acute toxicity was tested by oral administration with the compounds of this invention in fasted mice (ICR stain).
# [5] = serum taken 2 hr after administration, read-out: Inhibition % on aldose reductase in vivo, 2 hr after administration
# [6] = serum taken 5 hr after administration, read-out: Inhibition % on aldose reductase in vivo, 5 hr after administration
structure (smiles),measurement,setting,value
"O=C1CC2(C(=O)N1)C(=O)N1CCCc3cccc2c31 (stereo not shown) [Example 1, 5',6'-Dihydrospiro[pyrrolidine-3,1'-[4H]pyrrolo[3,2,1-ij]quinoline]-2,2',5(1'H)-trione]",IC50,aldose reductase [1],6 µM
same,inhibition at 25 mg/kg,aldose reductase [2]; [5],61.2%
same,inhibition at 25 mg/kg,aldose reductase [2]; [6],49.8%
"O=C1CC2(C(=O)N1)C(=O)N1CCCc3cc(Cl)cc2c31 (stereo not shown) [Example 2, 8'-Chloro-5',6'-dihydrospiro[pyrrolidine-3,1'-[4H]pyrrolo[3,2,1-ij]quinoline]-2,2',5(1'H)-trione]",IC50,aldose reductase [1],0.4 µM
same,anti-convulsion activity (suppressive effect on pentylenetetrazole convulsion),[3],did not show any suppressive effect
same,inhibition at 25 mg/kg,aldose reductase [2]; [5],71.7%
same,inhibition at 25 mg/kg,aldose reductase [2]; [6],68.5%
CC1CCc2cccc3c2N1C(=O)C31CC(=O)NC1=O (stereo not shown) [Example 3],IC50,aldose reductase [1],9 µM
same,inhibition at 25 mg/kg,aldose reductase [2]; [5],53.3%
same,inhibition at 25 mg/kg,aldose reductase [2]; [6],42.6%
CC1CCc2cc(Cl)cc3c2N1C(=O)C31CC(=O)NC1=O (stereo not shown) [Example 4],IC50,aldose reductase [1],0.35 µM
same,inhibition at 25 mg/kg,aldose reductase [2]; [5],71.5%
same,inhibition at 25 mg/kg,aldose reductase [2]; [6],70.2%
O=C1CC2(C(=O)N1)C(=O)N1CCOc3cccc2c31 (stereo not shown) [Example 5],IC50,aldose reductase [1],5 µM
same,inhibition at 25 mg/kg,aldose reductase [2]; [5],52.3%
same,inhibition at 25 mg/kg,aldose reductase [2]; [6],47.6%
"O=C1CC2(C(=O)N1)C(=O)N1c3ccccc3Sc3cccc2c31 (stereo not shown) [Example 6, Spiro[pyrrolidine-3,2'-pyrrolo[3,2,1-kl]phenothiazine]-1',2,5(2'H)-trione]",IC50,aldose reductase [1],0.35 µM
same,LD50,"[4]; oral, fasted ICR mice",> 2000 mg/kg
same,inhibition at 25 mg/kg,aldose reductase [2]; [5],11.8%
same,inhibition at 25 mg/kg,aldose reductase [2]; [6],13.4%
"Cc1cc2c3c(c1)C1(CC(=O)NC1=O)C(=O)N3CCC2 (stereo not shown) [Example 7, 5',6'-Dihydro-8'-methylspiro[pyrrolidine-3,1'-[4H]pyrrolo[3,2,1-ij]quinoline]-2,2',5(1'H)-trione]",IC50,aldose reductase [1],2 µM
same,inhibition at 25 mg/kg,aldose reductase [2]; [5],48.4%
same,inhibition at 25 mg/kg,aldose reductase [2]; [6],33.8%
"O=C1CC2(C(=O)N1)C(=O)N1CCOc3cc(Cl)cc2c31 (stereo not shown) [Example 8, 8'-Chloro-2',3'-dihydrospiro[pyrrolidine-3,6'-pyrrolo[1,2,3-de][1,4]benzoxazine]-2,5,5'(6'H9-trione]",IC50,aldose reductase [1],0.6 µM
same,LD50,[4]; po,> 2000 mg/kg
same,inhibition at 25 mg/kg,aldose reductase [2]; [5],62.5%
same,inhibition at 25 mg/kg,aldose reductase [2]; [6],61.4%
O=C1CC2(C(=O)N1)C(=O)N1CCSc3cccc2c31 (stereo not shown) [Example 11],IC50,aldose reductase [1],2 µM
same,inhibition at 25 mg/kg,aldose reductase [2]; [5],72.3%
same,inhibition at 25 mg/kg,aldose reductase [2]; [6],71.3%
O=C1CC2(C(=O)N1)C(=O)N1CCOc3c(Cl)ccc2c31 (stereo not shown) [Example 12],IC50,aldose reductase [1],1.5 µM
same,LD50,[4]; po,> 2000 mg/kg
same,inhibition at 25 mg/kg,aldose reductase [2]; [5],72.3%
same,inhibition at 25 mg/kg,aldose reductase [2]; [6],73.9%
O=C1CC2(C(=O)N1)C(=O)N1CCOc3c(Cl)c(Cl)cc2c31 (stereo not shown) [Example 13],IC50,aldose reductase [1],0.2 µM
same,LD50,[4]; po,> 2000 mg/kg
same,inhibition at 25 mg/kg,aldose reductase [2]; [5],78.2%
same,inhibition at 25 mg/kg,aldose reductase [2]; [6],81.2%
O=C1CC2(C(=O)N1)C(=O)N1CCOc3cc(F)cc2c31 (stereo not shown) [Example 14],IC50,aldose reductase [1],0.7 µM
same,LD50,[4]; po,> 1000 mg/kg
same,inhibition at 25 mg/kg,aldose reductase [2]; [5],75.1%
same,inhibition at 25 mg/kg,aldose reductase [2]; [6],75.8%
O=C1CC2(C(=O)N1)C(=O)N1CCOc3c(F)c(F)cc2c31 (stereo not shown) [Example 15],IC50,aldose reductase [1],0.7 µM
same,inhibition at 25 mg/kg,aldose reductase [2]; [5],74.9%
same,inhibition at 25 mg/kg,aldose reductase [2]; [6],75.2%
Cc1cc2c3c(c1)C1(CC(=O)NC1=O)C(=O)N3CCO2 (stereo not shown) [Example 16],IC50,aldose reductase [1],2.5 µM
same,LD50,[4]; po,> 2000 mg/kg
COc1cc2c3c(c1)C1(CC(=O)NC1=O)C(=O)N3CCO2 (stereo not shown) [Example 17],IC50,aldose reductase [1],35 µM
"O=C1NC(=O)[C@@]2(CCOc3ccc(F)cc32)N1 [Sorbinil, (4S)2,3-dihydro-6-fluorospiro[4H--1benzopyran-4,4 imidazolidine2',5dione, reference compound]",anti-convulsion activity (suppressive effect on pentylenetetrazole convulsion),[3],dose-dependent protection against the tonic convulsion
same,inhibition at 25 mg/kg,aldose reductase [2]; [5],79.8%
same,inhibition at 25 mg/kg,aldose reductase [2]; [6],79.5%
O=C1NC(=O)C(c2ccccc2)(c2ccccc2)N1 [phenytoin],anti-convulsion activity (suppressive effect on pentylenetetrazole convulsion),[3],dose-dependent protection against the tonic convulsion
